# According to patent EP0403172A2, “Purified enzyme and process therefor” (OKLAHOMA STATE UNIVERSITY, priority 1989, dated 1990):
# Read-outs that look alike come from different tables or passages of the source.
# What was measured:
# Assay type in all cases: biochemical
# [1] = target: T1, isopenicillin N epimerase (Streptomyces clavuligerus, UniProt P18549); experiment: Epimerase activity assay (product formation from isopenicillin N / penicillin N, quantitated by HPLC after o-phthaldialdehyde derivatization)
# T1 construct: Approximately 250 g of frozen whole cells of S. clavuligerus were thawed and homogenated; made in house; host or cells: Streptomyces clavuligerus NRRL 18491 (native producer; the endogenous enzyme was purified from cell-free extract, not made recombinantly)
# T1 sequence (P18549 1-398): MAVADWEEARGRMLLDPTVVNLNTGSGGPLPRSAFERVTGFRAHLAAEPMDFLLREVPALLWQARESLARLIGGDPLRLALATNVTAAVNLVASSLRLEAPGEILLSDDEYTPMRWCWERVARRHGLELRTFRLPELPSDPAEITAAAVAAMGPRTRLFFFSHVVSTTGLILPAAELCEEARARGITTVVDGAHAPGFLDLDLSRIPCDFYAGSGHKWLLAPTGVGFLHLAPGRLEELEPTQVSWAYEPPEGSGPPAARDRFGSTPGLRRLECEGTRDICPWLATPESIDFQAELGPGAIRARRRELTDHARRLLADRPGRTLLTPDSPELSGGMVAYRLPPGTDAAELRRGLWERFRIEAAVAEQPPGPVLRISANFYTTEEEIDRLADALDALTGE
# Protocol: The epimerase activity was determined by the product formation using isopenicillin N and penicillin N as substrates. Formation of isopenicillin N and penicillin N was quantitated by HPLC. […] The reaction mixture was incubated at 37°C for 20 min. The reaction was terminated by placing the reaction vessel in boiling water for 10 min, immediately cooling the reaction mixture with ice, and then filtering the cold mixture through a 0.45 µm filter.
# The derivatives were then analyzed by HPLC. The assay samples were prepared for HPLC as follows. The assay filtrate, obtained as described above, 20 µl was mixed with 5 µl of a derivatizing reagent consisting of 4 mg of o-phthaldialdehyde dissolved in 300 µl of methanol, 250 µl of 0.4 M sodium borate, pH 9.4, 390 µl of water and 60 µl of 1 M N-acetyl-L-cysteine, adjusted to pH 5-6 with sodium hydroxide. After a 2 min reaction time, 200 µl of 50 mM sodium acetate, pH 5.0, were added to the mixture and 50 µl aliquots were used for HPLC analysis.
# [2] = target: T1, isopenicillin N epimerase; experiment: Fluorescamine titration of hydroxylamine-treated epimerase with activity assay of aliquots; details: fluorescamine/epimerase ratio of 35 mole/mole
# Protocol: Fluorescamine reacts with primary amino groups, such as the α-amino group of the N-terminal amino residue and the ε-amino groups of lysine in the enzyme to form fluorescent products with maximum excitation and emission wavelength of 390 nm and 475 nm, respectively.
# The emission fluorescence of fluorescamine treated epimerase shown in FIG. 2 of the drawings was obtained as follows. The epimerase (0.5 mg/ml) was incubated in 10 mM potassium phosphate, pH 7.0, containing 10 mM hydroxylamine at 0°C for 60 min. After removal of hydroxylamine by gel filtration, the treated enzyme (0.16 mg/ml) in 10 mM potassium phosphate, pH 7.0, was titrated with the indicated amounts of fluorescamine (50 mM) dissolved in dry acetone at 25°C. The sample was excited at 390 nm and the emission fluorescence was followed at 475 nm. […] Simultaneously, aliquots of the enzyme solution were withdrawn and activity for isopenicillin N was assayed. The assay results (% activity) are shown on the curve labeled "●" in FIG. 2.
# [3] = target: T1, isopenicillin N epimerase; experiment: Conversion to apoenzyme with hydroxylamine / reduction with sodium borohydride, then activity
# Protocol: PLP bound to the epimerase was measured by the known phenylhydrazine method and an average value of one mole of PLP per 47,000 g of enzyme was obtained. The haloenzyme was converted to the apoenzyme by incubation at 0°C for 60 min with 10 mM potassium phosphate, pH 7.0, containing 10 mM hydroxylamine followed by gel filtration. The hydroxylamine treated epimerase expressed no activity in the absence of exogenous PLP and the absorption maximum at 420 nm disappeared (FIG. 1, curve 2). The epimerase activity was restored by the addition of PLP to the apoenzyme. The apparent Michelis constant for PLP was determined to be 2.4 µM.
# The absorption spectra shown in FIG. 1 of the drawings were obtained as follows. The epimerase (haloenzyme), curve 1, was treated with 10 mM hydroxylamine (apoenzyme), curve 2, or was reduced with 1 mM sodium borohydride, curve 3. After removal of hydroxylamine or sodium borohydride by gel filtration, absorption spectra were run in 10 mM potassium phosphate, pH 7.0, at the enzyme concentration of 0.57 mg/ml with an Aminco DW-2000 spectrophotometer.
# [4] = compound as epimerase substrate at 1.4 mM, Isopenicillin N = 100
# [5] = compound as epimerase substrate at 1.4 mM, Isopenicillin N = 100, read-out: Relative Activity (%)
smiles,measurement,setting,value
"N[C@H](CCCC(=O)N[C@@H]1C(=O)N2C(C(=O)O)=C(CO)CS[C@H]12)C(=O)O [DAC, Deacetylcephalosporin C]",Relative Activity (%),[1]; [4],0%
O[C@H](CS)[C@H](O)CS (racemic) [Dithiothreitol],effect on activity of epimerase,[1],partially stimulated
same,Activity,[1]; sulfhydryl compound at 0.2 mM,290 µmol/min/mL
same,Activity,[1]; sulfhydryl compound at 0.5 mM,300 µmol/min/mL
OCCS [β-mercaptoethanol],effect on activity of epimerase,[1],partially stimulated
same,Activity,[1]; sulfhydryl compound at 0.2 mM,275 µmol/min/mL
same,Activity,[1]; sulfhydryl compound at 0.5 mM,281 µmol/min/mL
O=S(=O)([O-])[O-].[Fe+2] [FeSO4],Activity,"[1]; Table 4, compound at 0.1 mM",150 µmol/min/mL
"CC(C)(COP(=O)(O)OP(=O)(O)OC[C@H]1O[C@@H](n2cnc3c(N)ncnc32)[C@H](O)[C@@H]1OP(=O)(O)O)[C@@H](O)C(=O)NCCC(=O)NCCS [CoA, Coenzyme A]",Activity,"[1]; Table 4, compound at 1 mM",202 µmol/min/mL
O=C1OC2(OC=C(c3ccccc3)C2=O)c2ccccc21 (stereo not shown) [fluorescamine],epimerase activity remaining,[2],about 80%
"Cc1ncc(COP(=O)(O)O)c(C=O)c1O [PLP, pyridoxal-5′-phosphate]",apparent Michelis constant for PLP,[1]; PLP added to the apoenzyme (hydroxylamine treated),2.4 µM
CCN1C(=O)C=CC1=O [N-Ethylmaleimide],inhibition at 100 µM,[1]; compound at 0.1 mM,26%
same,inhibition at 1000 µM,[1]; compound at 1.0 mM,45%
NC(=O)CI [Iodoacetamide],inhibition at 1000 µM,[1]; compound at 1.0 mM,28%
CC1(C)S[C@@H]2[C@H](NC(=O)CCC[C@H](N)C(=O)O)C(=O)N2[C@H]1C(=O)O [Isopenicillin N],Activity,[1]; [5],100%
CC1(C)S[C@@H]2[C@H](NC(=O)CCC[C@@H](N)C(=O)O)C(=O)N2[C@H]1C(=O)O [Penicillin N],Activity,[1]; [5],204%
CC(=O)N[C@@H](CS)C(=O)O [N-acetyl-L-cysteine],Activity,[1]; sulfhydryl compound at 0.2 mM,224 µmol/min/mL
same,Activity,[1]; sulfhydryl compound at 0.5 mM,190 µmol/min/mL
"CC1=C(C(=O)O)N2C(=O)[C@@H](NC(=O)CCC[C@@H](N)C(=O)O)[C@H]2SC1 [DAOC, Deacetoxycephalosporin C (3-cephem)]",Activity,[1]; [5],< 1%
CC(C)NNC(=O)c1ccncc1 [Iproniazid],inhibition at 1000 µM,[1]; compound at 1.0 mM,25%
O=S(=O)(F)Cc1ccccc1 [phenylmethylsulfonyl fluoride],effect on activity of epimerase,[1],do not affect
N[C@@H](CCCC(=O)O)C(=O)O [L-Amino adipic acid],Activity,[1]; [5],0%
NO [Hydroxylamine],Inhibition (%),[1]; compound at 0.1 mM,80%
same,Inhibition (%),[1]; compound at 1.0 mM,95%
same,epimerase activity after treatment,"[3]; 10 mM hydroxylamine, 0°C, 60 min, gel filtration, absence of exogenous PLP",no activity
"CC(C)[C@@H](NC(=O)[C@H](CS)NC(=O)CCC[C@H](N)C(=O)O)C(=O)O [ACV, δ-(L-α-aminoadipoyl)-L-cysteinyl-D-valine]",Activity,[1]; [5],0%
"Nc1ncnc2c1ncn2[C@@H]1O[C@H](COP(=O)(O)OP(=O)(O)OP(=O)(O)O)[C@@H](O)[C@H]1O [ATP, Adenosine Triphosphate]",Activity,"[1]; Table 4, compound at 1 mM",208 µmol/min/mL
N[C@H](CCCC(=O)O)C(=O)O [D-Amino adipic acid],Activity,[1]; [5],0%
N[C@@H]1CONC1=O [D-Cycloserine],inhibition at 1000 µM,[1]; compound at 1.0 mM,23%
O=CC(=O)c1ccccc1 [Phenylglyoxal],inhibition at 1000 µM,[1]; compound at 1.0 mM,33%
"CC1=CSC2C(NC(=O)CCCC(N)C(=O)O)C(=O)N2C1C(=O)O (stereo not shown) [IsoDAOC, Isodeacetoxycephalosporin C (2-cephem)]",Relative Activity (%),[1]; [4],0%
"CC(=O)OCC1=C(C(=O)O)N2C(=O)[C@@H](NC(=O)CCC[C@@H](N)C(=O)O)[C@H]2SC1 [Ceph C, cephalosporin C]",Activity,[1]; [5],0%
"NC(=O)C1=CN([C@@H]2O[C@H](COP(=O)(O)OP(=O)(O)OC[C@H]3O[C@@H](n4cnc5c(N)ncnc54)[C@H](O)[C@@H]3O)[C@@H](O)[C@H]2O)C=CC1 [NADH, Reduced Nicotinamide Adenine Dinucleotide]",Activity,"[1]; Table 4, compound at 1 mM",184 µmol/min/mL
NNC(=O)c1ccncc1 [Isoniazid],inhibition at 1000 µM,[1]; compound at 1.0 mM,23%
[BH4-].[Na+] [sodium borohydride],catalytic activity after reduction,"[3]; reduction of haloenzyme with sodium borohydride (1 mM), PLP did not restore activity",destroyed catalytic activity
"Cc1cc2nc3c(=O)[nH]c(=O)nc-3n(C[C@H](O)[C@H](O)[C@H](O)COP(=O)(O)OP(=O)(O)OC[C@H]3O[C@@H](n4cnc5c(N)ncnc54)[C@H](O)[C@@H]3O)c2cc1C [FAD, Flavin-Adenine Dinucleotide]",Activity,"[1]; Table 4, compound at 0.5 mM",42 µmol/min/mL
same,inhibition at 500 µM,[1]; compound at 0.5 mM,80%
